According to patent US8937078B2, “Quinazolinones as prolyl hydroxylase inhibitors” (Janssen Pharmaceutica NV, priority 2009, dated 2015):

Experiments:
[1] = system: Hep-3B cells; assay: Cellular assay: erythropoietin secretion in Hep-3B cells; type: cell-based, human; settings: Homo sapiens, Hep3B, 100 μM compound, 24 hours, percent of EPO secretion relative to assay control compound 7-[(4-Chloro-phenyl)-(5-methyl-isoxazol-3-ylamino)-methyl]-quinolin-8-ol, read-out: Cellular % EPO Stimulation
Protocol: Hep-3B cells (ATCC, Manassas, Va.) were plated in 96-well plates at 20,000 cells per well in 100 μl of DMEM containing 10% fetal bovine serum, 1% non-essential amino acids, 50 IU/mL of penicillin and 50 μg/mL of streptomycin (all cell culture reagents from Invitrogen, Carlsbad, Calif.). Twenty-four hours after plating, compounds were added and incubated for an additional 24 hours. All compounds were tested under saturating conditions with final compound concentrations at 100 μM. Fifty microliters of the supernatant was then transferred to a human Hypoxia assay kit (Meso-Scale Discovery, Gaithersburg, Md.). Erythropoietin in the supernatant was detected according to the manufacturer's instructions as follows. EPO detection plates were blocked with 3% BSA in PBS overnight and 50 μl of the supernatant was incubated at room temperature in an orbital shaker for 2 h. Twenty-five microliters of 0.5 μg/ml anti-EPO detection antibody was added for 2 hours at room temperature in an orbital shaker. After 3 washes in PBS, 150 μl of 1× read buffer is added and the plate is then read on the MSD SECTOR instrument.

[2] = biological target: T1, human PHD2 (PHD2181-417) (Homo sapiens, UniProt Q9GZT9); assay: PHD enzymatic assay ([14C]-succinic acid production); type: biochemical; settings: PHD2181-417, HIF-1α peptide 10 μM, average of results; read-out: Enzyme pIC50 (converted)
T1 construct: Smt (SUMO) tag (cleaved yes); made in house; host or cells: E. coli BL21 (pBAD vector)
Protocol: Protein production was achieved by expression in BL21 cells grown in Terrific Broth containing 100 μg/ml ampicillin. Cell cultures were inoculated at 37° C. and grown to an OD600 of 0.8. Cultures were induced with 0.1% arabinose and grown overnight at 20° C. with continuous shaking at 225 rpm. Cells were then harvested by centrifugation and stored at −80° C. Cell pellets were suspended in Buffer A (50 mM Tris-HCl pH 7.2, 100 mM NaCl, 100 mM L-arginine, 1 mM TCEP, 0.05% (w/v) NP-40, 50 mM imidazole) followed by the addition of lysozyme and benzonase. Cells were lysed by sonication and the lysate was cleared by centrifugation (15,000 rpm, 90 min, 4° C.). The protein was purified by nickel affinity chromatography using a HisTrap Crude FF column (GE Healthcare). Samples were eluted in Buffer A with a 50-200 mM imidazole gradient. […] The flow-through was then dialyzed into 50 mM MES pH 6.0, 1 mM TCEP, 5 mM NaCl for ion exchange chromatography on a HiTrap SP Cation Exchange column (GE Healthcare). […] Fractions were pooled for further purification by size exclusion chromatography over a Superdex 75 Size Exclusion Column (GE Healthcare). Final protein was concentrated to 4 mg/ml and dialyzed in 10 mM PIPES pH 7.0, 100 mM NaCl, 0.5 mM TCEP.
(10 μM, California Peptide Research Inc., Napa, Calif.), and [5-^14C]-2-oxoglutaric acid (50 mCi/mmol, Moravek Chemicals, Brea, Calif.) in reaction buffer (40 mM Tris-HCl, pH 7.5, 0.4 mg/ml catalase, 0.5 mM DTT, 1 mM ascorbate) for 10 minutes. The reaction was stopped by addition of 50 μl of 70 mM H3PO4 and 50 μl of 500 mM NaH2PO4, pH3.2. Detection of [^14C]-succinic acid was achieved by separating from [5-^14C]-2-oxoglutaric acid by incubating the reaction mixture with 100 μl of 0.16 M DNP prepared in 30% perchloric acid. Next, 50 μl of unlabeled 20 mM 2-oxoglutaric acid/20 mM succinic acid, serving as carrier for the radioactivity, was added to the mixture, and was allowed to proceed for 30 minutes at room temperature. The reaction was then incubated with 50 μl of 1 M 2-oxoglutaric acid for 30 additional minutes at room temperature to precipitate the excess DNP. The reaction was then centrifuged at 2800×g for 10 minutes at room temperature to separate [^14C]-succinic acid in the supernatant from the precipitated [^14C]-dinitrophenylhydrazone. Fractions of the supernatant (400 μl) were counted using a beta counter (Beckman Coulter, Fullerton, Calif.).

T1 sequence (Q9GZT9 181-417): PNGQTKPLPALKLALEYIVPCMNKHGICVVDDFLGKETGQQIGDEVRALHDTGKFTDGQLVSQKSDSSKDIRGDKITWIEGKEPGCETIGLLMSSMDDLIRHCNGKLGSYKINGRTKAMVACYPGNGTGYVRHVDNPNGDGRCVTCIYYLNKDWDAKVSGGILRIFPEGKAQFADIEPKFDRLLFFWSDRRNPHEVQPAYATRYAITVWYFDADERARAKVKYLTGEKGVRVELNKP

Row | Structure (SMILES) | Emax at 100 µM [1] | IC50 [2]
1 | O=C(O)c1cnn(-c2nc3ccc(OC(F)(F)F)cc3c(=O)[nH]2)c1 [Example 15, 1-(4-Oxo-6-trifluoromethoxy-3,4-dihydro-quinazolin-2-yl)-1H-pyrazole-4-carboxylic acid] | 19% | 15.8 nM
2 | O=C(O)c1cnn(-c2nc3c(C(F)(F)F)cccc3c(=O)[nH]2)c1 [Example 16, 1-(4-Oxo-8-trifluoromethyl-3,4-dihydro-quinazolin-2-yl)-1H-pyrazole-4-carboxylic acid] | 16% | 251 nM
3 | COc1cc2nc(-n3cc(C(=O)O)cn3)[nH]c(=O)c2cc1OC [Example 17, 1-(6,7-Dimethoxy-4-oxo-3,4-dihydro-quinazolin-2-yl)-1H-pyrazole-4-carboxylic acid] | 33% | 200 nM
4 | COc1cc2nc(-n3cc(C(=O)O)cn3)[nH]c(=O)c2c(OC)c1OC [Example 18, 1-(5,6,7-Trimethoxy-4-oxo-3,4-dihydro-quinazolin-2-yl)-1H-pyrazole-4-carboxylic acid] | 42% | 316 nM
5 | CC(C)(C)c1ccc2nc(-n3cc(C(=O)O)cn3)[nH]c(=O)c2c1 [Example 19, 1-(6-tert-Butyl-4-oxo-3,4-dihydro-quinazolin-2-yl)-1H-pyrazole-4-carboxylic acid] | 45% | 39.8 nM
6 | O=C(O)c1cnn(-c2nc3ccc(Oc4ccccc4)cc3c(=O)[nH]2)c1 [Example 20, 1-(4-Oxo-6-phenoxy-3,4-dihydro-quinazolin-2-yl)-1H-pyrazole-4-carboxylic acid] | 104% | 25.1 nM
7 | O=C(O)c1cnn(-c2nc3ccc(C4CCCCC4)cc3c(=O)[nH]2)c1 [Example 21, 1-(6-Cyclohexyl-4-oxo-3,4-dihydro-quinazolin-2-yl)-1H-pyrazole-4-carboxylic acid] | 84% | 25.1 nM
8 | O=C(O)c1cnn(-c2nc3cc(Cl)c(OC(F)(F)F)cc3c(=O)[nH]2)c1 [Example 22, 1-(7-Chloro-4-oxo-6-trifluoromethoxy-3,4-dihydro-quinazolin-2-yl)-1H-pyrazole-4-carboxylic acid] | 61% | 31.6 nM
9 | O=C(O)c1cnn(-c2nc3ccc4[nH]ccc4c3c(=O)[nH]2)c1 [Example 23, 1-(1-Oxo-2,7-dihydro-1H-pyrrolo[3,2-f]quinazolin-3-yl)-1H-pyrazole-4-carboxylic acid] | 33% | 158 nM
10 | CC(C)(C)c1ccc(Sc2cc3c(=O)nc(-n4cc(C(=O)O)cn4)[nH]c3cc2Cl)cc1 [Example 24, 1-[6-(4-tert-Butyl-phenylsulfanyl)-7-chloro-4-oxo-1,4-dihydro-quinazolin-2-yl]-1H-pyrazole-4-carboxylic acid] | 50% | 25.1 nM
11 | O=C(O)c1cnn(-c2nc(=O)c3cc(Sc4ccccc4)c(Cl)cc3[nH]2)c1 [Example 25, 1-(7-Chloro-4-oxo-6-phenylsulfanyl-1,4-dihydro-quinazolin-2-yl)-1H-pyrazole-4-carboxylic acid] | 68% | 39.8 nM
12 | COc1ccc(Sc2cc3c(=O)nc(-n4cc(C(=O)O)cn4)[nH]c3cc2Cl)cc1OC [Example 26, 1-[7-Chloro-6-(3,4-dimethoxy-phenylsulfanyl)-4-oxo-1,4-dihydro-quinazolin-2-yl]-1H-pyrazole-4-carboxylic acid] | 55% | 31.6 nM
13 | Cc1cc2nc(-n3cc(C(=O)O)cn3)[nH]c(=O)c2cc1Oc1c(C)cccc1C [Example 27, 1-[6-(2,6-Dimethyl-phenoxy)-7-methyl-4-oxo-3,4-dihydro-quinazolin-2-yl]-1H-pyrazole-4-carboxylic acid] | 10% | 20 nM
14 | COc1cc(Oc2ccc3nc(-n4cc(C(=O)O)cn4)[nH]c(=O)c3c2)cc(OC)c1OC [Example 28, 1-[4-Oxo-6-(3,4,5-trimethoxy-phenoxy)-3,4-dihydro-quinazolin-2-yl]-1H-pyrazole-4-carboxylic acid] | 9% | 20 nM
15 | O=C(O)c1cnn(-c2nc3ccc(Oc4cccc5ccccc45)cc3c(=O)[nH]2)c1 [Example 29, 1-[6-(naphthalen-1-yloxy)-4-oxo-3,4-dihydro-quinazolin-2-yl]-1H-pyrazole-4-carboxylic acid] | 124% | 25.1 nM
16 | O=C(O)c1cnn(-c2nc3ccc(Oc4cccc(Cl)c4)cc3c(=O)[nH]2)c1 [Example 30, 1-[6-(3-Chloro-phenoxy)-4-oxo-3,4-dihydro-quinazolin-2-yl]-1H-pyrazole-4-carboxylic acid] | 15% | 25.1 nM
17 | COc1cccc(Oc2ccc3nc(-n4cc(C(=O)O)cn4)[nH]c(=O)c3c2)c1 [Example 31, 1-[6-(3-Methoxy-phenoxy)-4-oxo-3,4-dihydro-quinazolin-2-yl]-1H-pyrazole-4-carboxylic acid] | 129% | 20 nM
18 | O=C(O)c1cnn(-c2nc3ccc(Oc4ccc(F)cc4)cc3c(=O)[nH]2)c1 [Example 32, 1-[6-(4-Fluoro-phenoxy)-4-oxo-3,4-dihydro-quinazolin-2-yl]-1H-pyrazole-4-carboxylic acid] | 68% | 25.1 nM
19 | O=C(O)c1cnn(-c2nc3ccc(Oc4ccccc4F)cc3c(=O)[nH]2)c1 [Example 33, 1-[6-(2-Fluoro-phenoxy)-4-oxo-3,4-dihydro-quinazolin-2-yl]-1H-pyrazole-4-carboxylic acid] | 56% | 31.6 nM
20 | O=C(O)c1cnn(-c2nc3ccc(Oc4cccc(F)c4)cc3c(=O)[nH]2)c1 [Example 34, 1-[6-(3-Fluoro-phenoxy)-4-oxo-3,4-dihydro-quinazolin-2-yl]-1H-pyrazole-4-carboxylic acid] | 73% | 25.1 nM
21 | CC(C)(C)c1cc(Oc2ccc3nc(-n4cc(C(=O)O)cn4)[nH]c(=O)c3c2)cc(C(C)(C)C)c1 [Example 35, 1-[6-(3,5-Di-tert-butyl-phenoxy)-4-oxo-3,4-dihydro-quinazolin-2-yl]-1H-pyrazole-4-carboxylic acid] | 8% | 31.6 nM
22 | Cc1cccc(Oc2ccc3nc(-n4cc(C(=O)O)cn4)[nH]c(=O)c3c2)c1 [Example 36, 1-(4-Oxo-6-m-tolyloxy-3,4-dihydro-quinazolin-2-yl)-1H-pyrazole-4-carboxylic acid] | 22% | 39.8 nM
23 | Cc1ccccc1Oc1ccc2nc(-n3cc(C(=O)O)cn3)[nH]c(=O)c2c1 [Example 37, 1-(4-Oxo-6-o-tolyloxy-3,4-dihydro-quinazolin-2-yl)-1H-pyrazole-4-carboxylic acid] | 78% | 25.1 nM
24 | O=C(O)c1cnn(-c2nc3ccc(Oc4c(Cl)cccc4Cl)cc3c(=O)[nH]2)c1 [Example 38, 1-[6-(2,6-Dichloro-phenoxy)-4-oxo-3,4-dihydro-quinazolin-2-yl]-1H-pyrazole-4-carboxylic acid] | 91% | 20 nM
25 | O=C(O)c1cnn(-c2nc3ccc(Oc4ccc(Cl)cc4Cl)cc3c(=O)[nH]2)c1 [Example 39, 1-[6-(2,4-Dichloro-phenoxy)-4-oxo-3,4-dihydro-quinazolin-2-yl]-1H-pyrazole-4-carboxylic acid] | 77% | 25.1 nM
